Laboratory results taken from patent US20250034216A1, “STEREOSELECTIVE COVALENT LIGANDS FOR ONCOGENIC AND IMMUNOLOGICAL PROTEINS” (The Scripps Research Institute, priority 2021, published 2025).

What was measured:
Assay in all cases: IA-DTB cysteine engagement
Format in all cases: binding
Settings in all cases: 22Rv1 cells, 20 μM probe, 1 h, relative to DMSO
CYP27B1_C163 = target: T1, CYP27B1_C163 (Homo sapiens, UniProt O15528)
T1 construct: endogenous in cells; host or cells: 22Rv1
T1 sequence (O15528 1-508): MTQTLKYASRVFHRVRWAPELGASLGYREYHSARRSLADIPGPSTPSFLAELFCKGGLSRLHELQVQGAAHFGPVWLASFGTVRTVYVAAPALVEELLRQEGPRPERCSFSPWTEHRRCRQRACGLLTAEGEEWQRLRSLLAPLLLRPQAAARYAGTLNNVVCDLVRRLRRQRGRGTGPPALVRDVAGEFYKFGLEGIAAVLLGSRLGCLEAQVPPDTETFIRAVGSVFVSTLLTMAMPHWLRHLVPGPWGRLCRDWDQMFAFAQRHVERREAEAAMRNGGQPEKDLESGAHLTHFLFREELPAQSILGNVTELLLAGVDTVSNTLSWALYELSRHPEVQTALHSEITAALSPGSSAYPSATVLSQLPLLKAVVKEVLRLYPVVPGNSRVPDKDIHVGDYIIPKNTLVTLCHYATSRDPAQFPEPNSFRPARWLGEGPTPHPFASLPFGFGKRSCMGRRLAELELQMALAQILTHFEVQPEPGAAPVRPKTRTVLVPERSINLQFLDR
Method in brief: (§1)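 Read-out is TMT-based cysteine engagement, expressed as each reporter ion intensity divided by the average of the DMSO channels. Before that, probe-treated cell lysates were capped with IA-DTB, digested, enriched on streptavidin and TMT-tagged. PSMs with DMSO summed intensity <10,000 or DMSO CV >0.5 were excluded.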

GNPAT_C122 = target: T2, GNPAT_C122 (Homo sapiens, UniProt O15228)
T2 construct: endogenous in cells; host or cells: 22Rv1
T2 sequence (O15228 1-680): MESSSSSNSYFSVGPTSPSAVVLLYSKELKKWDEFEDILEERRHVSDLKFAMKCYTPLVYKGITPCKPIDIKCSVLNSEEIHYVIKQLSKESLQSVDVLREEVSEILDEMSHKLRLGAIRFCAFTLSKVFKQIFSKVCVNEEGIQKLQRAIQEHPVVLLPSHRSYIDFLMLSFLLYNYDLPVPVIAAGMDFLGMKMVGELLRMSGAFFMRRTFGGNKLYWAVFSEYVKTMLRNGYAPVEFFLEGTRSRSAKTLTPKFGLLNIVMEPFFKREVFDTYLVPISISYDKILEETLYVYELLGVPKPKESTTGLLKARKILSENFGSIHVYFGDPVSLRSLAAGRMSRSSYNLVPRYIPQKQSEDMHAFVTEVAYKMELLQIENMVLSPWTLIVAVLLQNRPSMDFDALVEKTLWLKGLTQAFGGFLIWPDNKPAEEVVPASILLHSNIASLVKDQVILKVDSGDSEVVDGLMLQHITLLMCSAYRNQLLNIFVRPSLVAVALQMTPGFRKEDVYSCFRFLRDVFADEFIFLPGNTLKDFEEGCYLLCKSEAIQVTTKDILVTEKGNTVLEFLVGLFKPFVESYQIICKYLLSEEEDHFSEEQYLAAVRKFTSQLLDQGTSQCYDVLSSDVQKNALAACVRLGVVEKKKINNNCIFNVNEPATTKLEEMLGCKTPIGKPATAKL
Method in brief: as §1

SCAMP4_C20 = target: T3, SCAMP4_C20 (Homo sapiens, UniProt Q969E2)
T3 construct: endogenous in cells; host or cells: 22Rv1
T3 sequence (Q969E2 1-229): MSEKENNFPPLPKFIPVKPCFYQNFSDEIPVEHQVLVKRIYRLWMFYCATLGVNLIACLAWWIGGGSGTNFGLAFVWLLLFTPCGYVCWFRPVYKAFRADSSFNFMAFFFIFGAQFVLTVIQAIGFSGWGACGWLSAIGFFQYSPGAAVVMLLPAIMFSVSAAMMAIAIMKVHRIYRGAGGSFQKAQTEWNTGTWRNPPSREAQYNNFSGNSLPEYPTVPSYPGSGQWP
Method in brief: as §1

UBR5_C2094 = target: T4, UBR5_C2094 (Homo sapiens, UniProt O95071)
T4 construct: endogenous in cells; host or cells: 22Rv1
Method in brief: as §1

T4 sequence (O95071 whole entry): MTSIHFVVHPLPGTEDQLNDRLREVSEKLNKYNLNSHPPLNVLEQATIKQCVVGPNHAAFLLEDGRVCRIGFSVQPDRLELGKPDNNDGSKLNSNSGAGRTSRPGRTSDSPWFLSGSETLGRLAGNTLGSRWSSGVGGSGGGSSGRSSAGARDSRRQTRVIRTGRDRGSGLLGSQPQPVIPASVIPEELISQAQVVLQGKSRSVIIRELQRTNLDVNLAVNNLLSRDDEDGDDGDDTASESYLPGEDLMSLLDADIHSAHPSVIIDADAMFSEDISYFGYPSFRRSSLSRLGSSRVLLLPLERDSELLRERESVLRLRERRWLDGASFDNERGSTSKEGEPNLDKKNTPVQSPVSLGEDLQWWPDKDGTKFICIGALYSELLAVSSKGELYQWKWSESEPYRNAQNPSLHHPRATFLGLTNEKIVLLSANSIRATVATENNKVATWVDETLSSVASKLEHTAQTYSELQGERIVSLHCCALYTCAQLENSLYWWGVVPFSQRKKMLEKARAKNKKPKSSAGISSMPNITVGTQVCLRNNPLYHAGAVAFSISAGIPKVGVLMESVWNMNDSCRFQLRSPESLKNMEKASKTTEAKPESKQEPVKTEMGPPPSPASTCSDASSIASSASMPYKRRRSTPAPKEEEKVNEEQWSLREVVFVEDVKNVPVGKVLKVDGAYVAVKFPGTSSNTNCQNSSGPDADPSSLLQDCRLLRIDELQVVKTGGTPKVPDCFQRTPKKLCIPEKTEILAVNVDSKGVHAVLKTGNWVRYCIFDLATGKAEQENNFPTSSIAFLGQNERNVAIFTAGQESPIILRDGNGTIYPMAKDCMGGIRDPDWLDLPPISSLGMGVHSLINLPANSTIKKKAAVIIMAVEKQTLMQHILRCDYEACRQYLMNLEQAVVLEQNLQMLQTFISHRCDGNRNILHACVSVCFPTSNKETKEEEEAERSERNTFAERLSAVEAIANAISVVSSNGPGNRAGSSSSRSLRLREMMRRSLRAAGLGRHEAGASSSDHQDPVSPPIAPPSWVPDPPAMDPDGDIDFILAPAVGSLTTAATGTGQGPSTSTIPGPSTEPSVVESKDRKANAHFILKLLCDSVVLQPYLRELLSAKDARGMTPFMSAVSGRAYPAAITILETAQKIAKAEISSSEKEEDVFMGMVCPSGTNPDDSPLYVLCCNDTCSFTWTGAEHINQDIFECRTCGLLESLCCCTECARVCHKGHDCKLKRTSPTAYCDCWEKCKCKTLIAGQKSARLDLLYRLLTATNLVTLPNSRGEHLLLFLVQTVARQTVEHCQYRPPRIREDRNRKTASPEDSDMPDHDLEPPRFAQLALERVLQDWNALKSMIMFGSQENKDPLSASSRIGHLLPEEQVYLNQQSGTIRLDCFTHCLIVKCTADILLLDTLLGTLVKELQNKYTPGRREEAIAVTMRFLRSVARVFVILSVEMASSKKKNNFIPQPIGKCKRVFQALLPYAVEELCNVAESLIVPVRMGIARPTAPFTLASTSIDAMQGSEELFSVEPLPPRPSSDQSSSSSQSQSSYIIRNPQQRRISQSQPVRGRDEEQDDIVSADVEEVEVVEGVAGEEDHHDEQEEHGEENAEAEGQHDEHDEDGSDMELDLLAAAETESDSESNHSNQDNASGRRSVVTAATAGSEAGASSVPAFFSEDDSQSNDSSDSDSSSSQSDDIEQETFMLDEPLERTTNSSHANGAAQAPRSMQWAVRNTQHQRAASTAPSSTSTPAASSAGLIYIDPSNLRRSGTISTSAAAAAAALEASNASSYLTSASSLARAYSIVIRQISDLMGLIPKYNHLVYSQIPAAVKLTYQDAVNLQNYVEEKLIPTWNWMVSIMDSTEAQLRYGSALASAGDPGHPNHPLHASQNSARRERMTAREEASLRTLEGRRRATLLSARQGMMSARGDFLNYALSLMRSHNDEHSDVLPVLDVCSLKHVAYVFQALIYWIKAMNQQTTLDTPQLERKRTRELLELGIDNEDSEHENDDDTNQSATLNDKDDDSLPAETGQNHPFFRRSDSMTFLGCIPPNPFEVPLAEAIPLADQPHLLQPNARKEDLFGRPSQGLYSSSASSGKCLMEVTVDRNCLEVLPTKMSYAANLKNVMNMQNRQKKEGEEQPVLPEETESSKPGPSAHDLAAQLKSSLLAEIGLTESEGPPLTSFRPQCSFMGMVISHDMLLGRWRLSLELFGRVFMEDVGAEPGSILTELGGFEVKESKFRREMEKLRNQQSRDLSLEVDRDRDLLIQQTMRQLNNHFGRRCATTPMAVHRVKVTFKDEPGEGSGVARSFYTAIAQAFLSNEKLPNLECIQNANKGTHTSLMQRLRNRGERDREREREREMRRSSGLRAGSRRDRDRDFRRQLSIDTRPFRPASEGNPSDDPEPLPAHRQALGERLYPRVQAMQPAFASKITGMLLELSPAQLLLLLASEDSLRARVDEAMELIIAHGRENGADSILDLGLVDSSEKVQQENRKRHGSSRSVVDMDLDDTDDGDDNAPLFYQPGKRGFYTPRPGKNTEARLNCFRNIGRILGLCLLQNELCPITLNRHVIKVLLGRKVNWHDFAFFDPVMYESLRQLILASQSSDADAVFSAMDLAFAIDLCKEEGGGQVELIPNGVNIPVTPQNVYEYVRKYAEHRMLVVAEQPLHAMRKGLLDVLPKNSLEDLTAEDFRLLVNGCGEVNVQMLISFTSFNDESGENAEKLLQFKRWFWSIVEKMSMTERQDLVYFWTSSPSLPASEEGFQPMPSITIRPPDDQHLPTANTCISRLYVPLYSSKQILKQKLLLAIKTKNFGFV

## C=CC(=O)N1C[C@@H](c2ccc(Br)cc2)[C@H]1C(=O)Nc1cccc2cccnc12 [MY-1A, (2S,3R)-1-acryloyl-3-(4-bromophenyl)-N-(quinolin-8-yl)azetidine-2-carboxamide]
CYP27B1_C163
  % engagement CYP27B1_C163: 73%
GNPAT_C122
  % engagement GNPAT_C122: 70.5%
SCAMP4_C20
  % engagement SCAMP4_C20: 80%
UBR5_C2094
  % engagement UBR5_C2094: 23%

## C=CC(=O)N1C[C@H](c2ccc(Br)cc2)[C@@H]1C(=O)Nc1cccc2cccnc12 [MY-1B, (2R,3S)-1-acryloyl-3-(4-bromophenyl)-N-(quinolin-8-yl)azetidine-2-carboxamide]
CYP27B1_C163
  % engagement CYP27B1_C163: 89%
GNPAT_C122
  % engagement GNPAT_C122: 74.5%
SCAMP4_C20
  % engagement SCAMP4_C20: 85.5%
UBR5_C2094
  % engagement UBR5_C2094: 40.5%

## C=CC(=O)N1C[C@H](c2ccc(Br)cc2)[C@H]1C(=O)Nc1cccc2cccnc12 [MY-3A, (2S,3S)-1-acryloyl-3-(4-bromophenyl)-N-(quinolin-8-yl)azetidine-2-carboxamide]
CYP27B1_C163
  % engagement CYP27B1_C163: 73.5%
GNPAT_C122
  % engagement GNPAT_C122: 35.5%
SCAMP4_C20
  % engagement SCAMP4_C20: 72.5%
UBR5_C2094
  % engagement UBR5_C2094: 22.5%

## C=CC(=O)N1C[C@H](c2ccc(Br)cc2)[C@H]1C(=O)Nc1cccc2cccnc12 [MY-3B, (2S,3S)-1-acryloyl-3-(4-bromophenyl)-N-(quinolin-8-yl)azetidine-2-carboxamide]
CYP27B1_C163
  % engagement CYP27B1_C163: 100%
GNPAT_C122
  % engagement GNPAT_C122: 51.5%
SCAMP4_C20
  % engagement SCAMP4_C20: 100%
UBR5_C2094
  % engagement UBR5_C2094: 81%
